The values below come from patent US7053177B1, “Random peptides that bind to gastro-intestinal tract (GIT) transport receptors and related methods” (Cytogen Corporation, priority 1997, dated 2006).

Ends that are not written are not given here. Peptide text beside a SMILES is read from it. * marks the point of attachment. Dansyl = CN(C)c1cccc2c(S(=O)(=O)*)cccc12; K(dns) = dansyl-lysine

In this assay the test system is P100 membrane fraction of Caco-2 cells. The assay can be described thus: Dansylated peptide ELISA: relative binding of PAX2 and HAX42 peptides to P100 fractions (ratio to ZElan021). Conditions: ratio to ZElan021 = 1.00. The protocol: The peptides and proteins were analyzed by a dansylated peptide ELISA method in which 96 well plates were coated overnight at 4° C. with 100 μl/well coating protein (normally 100 μg/ml P100 membrane fraction) in 0.05M carbonate buffer pH9.6. Nonspecific binding was blocked using 200 μl/well, 2% Marvel/PBS for 2 hours at 37° C. prior to incubation with dansylated peptides. The plates were washed three times with PBS/0.05% Tween 20 and after each subsequent incubation step. […] A buffer blank control was included to ensure that background binding to plastic was not due to the antibodies used in the assay system. […] Plates were developed using 75 μl/well Bionostics TMB substrate and incubated for approximately 10 minutes. The developing reaction was stopped using Bionostics Red Stop solution (25 μl/well), and the optical density of the plates was read at 650 nm. […]

`CC(C)C[C@H](NC(=O)[C@H](C)NC(=O)[C@H](CCCNC(=N)N)NC(=O)[C@H](CC(N)=O)NC(=O)[C@H](Cc1c[nH]cn1)NC(=O)[C@H](CO)NC(=O)[C@H](CO)NC(=O)[C@@H](N)CCCCNS(=O)(=O)c1cccc2c(N(C)C)cccc12)C(=O)N[C@@H](CCCNC(=N)N)C(=O)N[C@H](C(=O)N[C@@H](CCCNC(=N)N)C(N)=O)[C@@H](C)O` [ZElan078] (H-K(Dansyl)SSHNRALRTR-NH2): under “PAX2 peptides, first column”, the “Binding value at 20 μg/ml” value came out at 0.11 and the “Binding value at 50 μg/ml” value was determined as 0.87. Further, where the note is “PAX2 peptides”, the “Binding value at 50 μg/ml (Jackson Ab)” value amounted to 0.68 and the “Binding value at 50 μg/ml (Southern Ab)” value was 0.47. Further, the “Binding value at 50 μg/ml” value (PAX2 peptides, second column) is on record as 0.69.
`CC(C)C[C@H](NC(=O)[C@H](CCCNC(=N)N)NC(=O)[C@H](CCCNC(=N)N)NC(=O)[C@H](CC(N)=O)NC(=O)[C@H](Cc1c[nH]cn1)NC(=O)[C@H](CO)NC(=O)[C@H](CO)NC(=O)[C@@H](N)CCCCNS(=O)(=O)c1cccc2c(N(C)C)cccc12)C(=O)N[C@@H](CCCNC(=N)N)C(=O)N[C@H](C(=O)N[C@@H](C)C(N)=O)[C@@H](C)O` [ZElan082] (H-K(Dansyl)SSHNRRLRTA-NH2): under “PAX2 peptides, first column”, the “Binding value at 20 μg/ml” value was determined as 0.00. Besides, the “Binding value at 50 μg/ml” value turned out to be 0.92 (PAX2 peptides, first column) and 0.40 (PAX2 peptides, second column).
Turning to “H2N—K(dns)PGDYNCCGNG ({K(dns)}-PGDYNCCGNG-NH2; cysteine pairing not given here) [ZElan092]”, the “Binding value at 25 μg/ml” value by setting is: (HAX42 peptides, first column) 1.41; (HAX42 peptides, second column) 1.90; (HAX42 peptides, third column) 0.91.
“H2N-K(dns)SDHALGTNLRSDNAKEPGDYNCCGNG-CONH2 ({K(dns)}-SDHALGTNLRSDNAKEPGDYNCCGNG-NH2; cysteine pairing not given here) [ZElan06O]”: the “Binding value at 20 μg/ml” value (HAX42 peptides) was 0.44. The “Binding value at 50 μg/ml” value (HAX42 peptides, first column) came out at 0.56 and the “Binding value at 50 μg/ml” value (HAX42 peptides, second column) came out at 0.43.
In the case of “K(Dansyl)GRNHDVVSSNTHKSYRSPRSASYPRLSNDRTDRTEPAPSS-NH2 [ZElan083]”, where the note is “PAX2 peptides, first column”, the “Binding value at 20 μg/ml” value is given as 0.43. For the same molecule, under “PAX2 peptides, second column”, the “Binding value at 20 μg/ml” value was found to be 0.63 and the “Binding value at 50 μg/ml” value worked out at 0.88.
As for `CC(C)C[C@H](NC(=O)[C@H](CCCNC(=N)N)NC(=O)[C@H](CCCNC(=N)N)NC(=O)[C@H](CC(N)=O)NC(=O)[C@H](Cc1c[nH]cn1)NC(=O)[C@H](CO)NC(=O)[C@H](CO)NC(=O)[C@@H](N)CCCCNS(=O)(=O)c1cccc2c(N(C)C)cccc12)C(=O)N[C@@H](CCCNC(=N)N)C(=O)N[C@@H](C)C(=O)N[C@@H](CCCNC(=N)N)C(N)=O` [ZElan081] (H-K(Dansyl)SSHNRRLRAR-NH2), under “PAX2 peptides, first column”, the “Binding value at 20 μg/ml” value is given as 0.01 and the “Binding value at 50 μg/ml” value stood at 0.89. Also, the “Binding value at 50 μg/ml” value (PAX2 peptides, second column) was found to be 0.47.
For the molecule `C[C@H](NC(=O)[C@H](CC(N)=O)NC(=O)[C@@H](NC(=O)[C@@H](N)CCCCNS(=O)(=O)c1cccc2c(N(C)C)cccc12)[C@@H](C)O)C(=O)N[C@@H](CCCCN)C(=O)N[C@@H](Cc1c[nH]cn1)C(=O)N[C@@H](CO)C(=O)N[C@@H](CO)C(=O)N[C@@H](Cc1c[nH]cn1)C(=O)N[C@@H](CC(N)=O)C(N)=O` [ZElan055] (H-K(Dansyl)TNAKHSSHN-NH2), the “Binding value at 20 μg/ml” value came out at 0.99 (PAX2 peptides, first column) and 0.73 (PAX2 peptides, second column). Besides, the “Binding value at 50 μg/ml” value was 1.10 (PAX2 peptides, first column) and 0.59 (PAX2 peptides, second column).
With “H2N—K(dns)SDHALGTNLRSDNAK ({K(dns)}-SDHALGTNLRSDNAK; not fully specified (C-terminus); printed as H2N—K(dns)SDHALGTNLRSDNAK) [ZElan089]”, the “Binding value at 25 μg/ml” value (HAX42 peptides, first column) is given as 0.55; the “Binding value at 25 μg/ml” value (HAX42 peptides, second column) is reported as 0.44; the “Binding value at 25 μg/ml” value (HAX42 peptides, third column) turned out to be 0.49.
The like results for “H2N—K(dns)NCCGNGNSTG ({K(dns)}-NCCGNGNSTG-NH2; cysteine pairing not given here) [ZElan093]” were, in that order, 1.88, 1.37 and 1.33.
With `CC(C)[C@H](NC(=O)[C@H](CCCCN)NC(=O)[C@H](CCCNC(=N)N)NC(=O)[C@@H](N)CCCCNS(=O)(=O)c1cccc2c(N(C)C)cccc12)C(=O)N[C@@H](Cc1ccccc1)C(=O)N[C@@H](CC(N)=O)C(=O)N[C@@H](CCCNC(=N)N)C(=O)N[C@@H](CCCNC(=N)N)C(=O)N[C@@H](CCCNC(=N)N)C(=O)N1CCC[C@H]1C(=O)N[C@@H](CO)C(N)=O` [ZElan065] (H-K(Dansyl)RKVFNRRRPS-NH2), for the setting “HAX42 peptides”, the “Binding value at 20 μg/ml” value is 0.00. The “Binding value at 50 μg/ml” value (HAX42 peptides, first column) came to 0.54 and the “Binding value at 50 μg/ml” value (HAX42 peptides, second column) is 0.30.
For “H2N—K(dns)SDHALGTNLRSDNAKEPGDY ({K(dns)}-SDHALGTNLRSDNAKEPGDY; not fully specified (C-terminus); printed as H2N—K(dns)SDHALGTNLRSDNAKEPGDY) [ZElan087]”, the “Binding value at 25 μg/ml” value (HAX42 peptides, first column) is 0.46 and the “Binding value at 25 μg/ml” value (HAX42 peptides, second column) turned out to be 0.44.
`CC(C)C[C@H](NC(=O)[C@H](CCCNC(=N)N)NC(=O)[C@H](CCCNC(=N)N)NC(=O)[C@H](CC(N)=O)NC(=O)[C@H](C)NC(=O)[C@H](CO)NC(=O)[C@H](CO)NC(=O)[C@@H](N)CCCCNS(=O)(=O)c1cccc2c(N(C)C)cccc12)C(=O)N[C@@H](CCCNC(=N)N)C(=O)N[C@H](C(=O)N[C@@H](CCCNC(=N)N)C(N)=O)[C@@H](C)O` [ZElan075] (H-K(Dansyl)SSANRRLRTR-NH2): where the note is “PAX2 peptides, first column”, the “Binding value at 20 μg/ml” value was 0.13 and the “Binding value at 50 μg/ml” value was 0.52. For the same molecule, under “PAX2 peptides”, the “Binding value at 50 μg/ml (Jackson Ab)” value was found to be 0.47 and the “Binding value at 50 μg/ml (Southern Ab)” value is on record as 0.32. Moreover, for the setting “PAX2 peptides, second column”, the “Binding value at 50 μg/ml” value is 0.38.
As for H2N—K(dns)PGDYNCCGNGNSTG [ZElan091], the “Binding value at 25 μg/ml” value came out at 2.02 (HAX42 peptides, first column); 1.37 (HAX42 peptides, second column); 1.20 (HAX42 peptides, third column).
As for `C[C@H](NC(=O)[C@H](CCCNC(=N)N)NC(=O)[C@H](CCCNC(=N)N)NC(=O)[C@H](CC(N)=O)NC(=O)[C@H](Cc1c[nH]cn1)NC(=O)[C@H](CO)NC(=O)[C@H](CO)NC(=O)[C@@H](N)CCCCNS(=O)(=O)c1cccc2c(N(C)C)cccc12)C(=O)N[C@@H](CCCNC(=N)N)C(=O)N[C@H](C(=O)N[C@@H](CCCNC(=N)N)C(N)=O)[C@@H](C)O` [ZElan079] (H-K(Dansyl)SSHNRRARTR-NH2), where the note is “PAX2 peptides, first column”, the “Binding value at 20 μg/ml” value was 0.31 and the “Binding value at 50 μg/ml” value was found to be 0.97. For the setting “PAX2 peptides”, the “Binding value at 50 μg/ml (Jackson Ab)” value amounted to 0.83 and the “Binding value at 50 μg/ml (Southern Ab)” value worked out at 0.53. Moreover, the “Binding value at 50 μg/ml” value (PAX2 peptides, second column) was found to be 0.68.
Regarding `CC[C@H](C)[C@H](NC(=O)[C@H](C)NC(=O)[C@H](CO)NC(=O)[C@@H]1CCCN1C(=O)[C@H](CCCNC(=N)N)NC(=O)[C@H](CCCNC(=N)N)NC(=O)[C@H](CCCNC(=N)N)NC(=O)[C@H](CC(N)=O)NC(=O)[C@H](Cc1ccccc1)NC(=O)[C@@H](NC(=O)[C@H](CCCCN)NC(=O)[C@H](CCCNC(=N)N)NC(=O)CNC(=O)[C@@H](NC(=O)[C@H](CO)NC(=O)[C@H](CC(N)=O)NC(=O)CNC(=O)[C@H](CC(N)=O)NC(=O)CNC(=O)[C@H](CS)NC(=O)[C@H](CS)NC(=O)[C@H](CC(N)=O)NC(=O)[C@H](Cc1ccc(O)cc1)NC(=O)[C@H](CC(=O)O)NC(=O)CNC(=O)[C@@H](N)CCCCNS(=O)(=O)c1cccc2c(N(C)C)cccc12)[C@@H](C)O)C(C)C)C(=O)N1CCC[C@H]1C(=O)N[C@H](C(N)=O)[C@@H](C)O` [ZElan061] (H-K(Dansyl)GDYNCCGNGNSTGRKVFNRRRPSAIPT-NH2), the “Binding value at 20 μg/ml” value (HAX42 peptides) is reported as 0.20. Moreover, the “Binding value at 50 μg/ml” value reads like this: (HAX42 peptides, first column) 0.60; (HAX42 peptides, second column) 0.38.
As to `CC(C)C[C@H](NC(=O)[C@H](CCCNC(=N)N)NC(=O)[C@H](CCCNC(=N)N)NC(=O)[C@H](CC(N)=O)NC(=O)[C@H](Cc1c[nH]cn1)NC(=O)[C@H](CO)NC(=O)[C@H](C)NC(=O)[C@@H](N)CCCCNS(=O)(=O)c1cccc2c(N(C)C)cccc12)C(=O)N[C@@H](CCCNC(=N)N)C(=O)N[C@H](C(=O)N[C@@H](CCCNC(=N)N)C(N)=O)[C@@H](C)O` [ZElan073] (H-K(Dansyl)ASHNRRLRTR-NH2), under “PAX2 peptides, first column”, the “Binding value at 20 μg/ml” value is 0.07 and the “Binding value at 50 μg/ml” value is on record as −0.11. Further, under “PAX2 peptides”, the “Binding value at 50 μg/ml (Jackson Ab)” value came out at 0.66 and the “Binding value at 50 μg/ml (Southern Ab)” value was 0.49. Also, the “Binding value at 50 μg/ml” value (PAX2 peptides, second column) is on record as 0.49.
